# Data published in patent US7371841B2, “Methods of modulating cold sensory perception” (Regents of the University of California, priority 2002, dated 2008).
# Like-named read-outs stand apart in the source and are kept apart here.
# Assays:
# CMR1 [1] = molecular target: T1, CMR1 (Rattus norvegicus, UniProt Q8R455, N449H); assay: Two-electrode voltage-clamp of Xenopus oocytes expressing the cloned cold/menthol receptor; assay type: cell-based; set-up: open reading frame of 3312 bp that is predicted to encode a protein of 1104 amino acids; expressed in transfected cells; host or cells: Xenopus laevis oocytes (cRNA injection); conditions: for EC50: room temperature, voltage clamp at -60 mV; for electrophysiological response of receptor-expressing oocytes: menthone, camphor, cyclohexanol applied near limits of solubility (>500 μM)
# Protocol: cRNA transcripts were synthesized and injected into Xenopus laevis oocytes as described (Brake, supra). Two-electrode voltage-clamp recordings were performed 2-7 days post-injection. Dose-response curves for cooling compounds were performed at room temperature (22-24° C.). AG-3-5 (icilin) was provided by Dr. E. Wei, University of California, Berkeley. Temperature ramps were generated by heating (˜35° C.) or cooling (˜4° C.) the perfusate in a Harvard coil and monitoring temperature changes with a thermister placed near the oocyte.
# trigeminal neurons [2] = assay: Calcium imaging (Fura-2) of dissociated trigeminal neurons; assay type: cell-based, rat; conditions: capsaicin 1 μM
# Protocol: Trigeminal ganglia were removed from newborn S/D rats, placed in ice-cold culture medium (MEM Eagle's with Earle's BSS supplemented with 10% horse serum, vitamins, penicillin/streptomycin and L-glutamine), cleaned of connective tissue/blood vessels and diced into 4-5 pieces. Ganglia were then transferred to 0.125% collagenase P (Boehringer) solution in CMF Hank's, shaken gently at 37° C. for 20 (P0 animals) to 30 min (P4 animals), pelleted, and resuspended in 0.05% STV at 37° C. for 2 min. Culture medium was added to inhibit enzymatic activity and ganglia were triturated gently with a fire-polished Pasteur pipette. Neurons were enriched by density gradient centrifugation as described (see, e.g., Eckert et al., J. Neurosci. Methods 77:183-90, 1997). […]
# trigeminal neurons [3] = assay: Whole-cell patch-clamp recordings of dissociated trigeminal neurons; assay type: cell-based, rat; conditions: for membrane currents elicited in trigeminal neurons: compared to an equivalent dose of menthol
# Protocol: Trigeminal ganglia were removed from newborn S/D rats, placed in ice-cold culture medium (MEM Eagle's with Earle's BSS supplemented with 10% horse serum, vitamins, penicillin/streptomycin and L-glutamine), cleaned of connective tissue/blood vessels and diced into 4-5 pieces. Ganglia were then transferred to 0.125% collagenase P (Boehringer) solution in CMF Hank's, shaken gently at 37° C. for 20 (P0 animals) to 30 min (P4 animals), pelleted, and resuspended in 0.05% STV at 37° C. for 2 min. Culture medium was added to inhibit enzymatic activity and ganglia were triturated gently with a fire-polished Pasteur pipette. Neurons were enriched by density gradient centrifugation as described (see, e.g., Eckert et al., J. Neurosci. Methods 77:183-90, 1997). Cells were resuspended in complete culture medium (MEM Eagle's/Earle's BSS with 10% horse serum, vitamins, penicillin/streptomycin, L-glutamine and 100 ng/ml NGF 7S (Invitrogen) and plated onto glass coverslips coated with PLO (1 mg/ml, Sigma) and laminin (5 μg/ml, Invitrogen). Cultures were maintained at 37° C. in 5% CO2 and examined 1-2 days after plating. Ca^2+ microfluorimetry was carried out as described (Caterina et al., Nature 389:816-24 (1997)). For cell selection prior to patch-clamp analysis, CaCl2 and pluronic acid were omitted from the loading buffer (nominally Ca^2+-free CIB). Cells in the recording chamber were perfused by gravity using the VC-6 valve control system (Warner Inst.).
# Trigeminal neurons responding to […] menthol with an increase in intracellular Ca2+ were selected for patch-clamp recordings. HEK293 cells were cultured in DMEM with 10% fetal bovine serum and co-transfected (Lipofectamine 2000, Invitrogen) with 1 μg CMR1 plasmid and 0.1 μg enhanced green fluorescence reporter plasmid to identify transfected cells. Cells were plated onto PLO-coated coverslips the next day and examined two days after transfection. Gigaseals were formed with pipettes (Garner Glass type 7052, ID 1.1, OD 1.5) having a resistance of 3-5 MΩ in standard pipette solution. Whole-cell voltage clamp was performed at a holding potential of −60 mV with a 200 ms voltage ramp from −120 mV to +80 mV at 3.6 Hz. Data were acquired using Pulse-Pulsefit (HEKA GmbH) software. Recordings were filtered at 5 kHz and sampled at 20 kHz. Pipette solution for neuronal experiments contained (in mM) 140 CsCl, 1 EGTA, 0.6 MgCl2, 10 HEPES, pH 7.4 (adjusted with CsOH). Standard Ca^2+-free bath solution for whole-cell recordings contained (in mM) 140 NaCl, 4 KCl, 2 MgCl2, 100 nM TTX (Sigma), 10 TRIS, pH 7.4 (adjusted with HCl) with or without 100 nM dendrotoxin I (Sigma). For ion replacement experiments, pipette solution contained (in mM) 140 KCl, 5 CsCl, 1 EGTA, 0.6 MgCl2, 1 4-aminopyridine, 10 HEPES, pH 7.4 (adjusted with KOH). Bath solution contained (in mM) 140 NaCl, 4 KCl, 2 MgCl2, 100 nM TTX, 100 nM dendrotoxin I, 100 nM apamine (Sigma), 100 nM carybdotoxin (Sigma), 1 μω-conotoxin MVIIC, 1 μM GVIA (Latoxan), 10 TRIS, pH 7.4 (adjusted with HCl). For monovalent cation permeability experiments perfusate contained (in mM) 140 NaCl (or 140 KCl or 140 NMDG), 100 nM TTX, 1 μM nitrendipine (Sigma), 10 HEPES, 10 glucose, pH 7.4 (adjusted with NaOH, KOH or HCl, respectively). For divalent cation permeability experiments perfusate contained (in mM) 125 NMDG, 10 CaCl2, 100 nM TTX, 1 μM nitrendipine, 10 HEPES, 10 glucose, pH 7.4 (adjusted with HCl). […]
# CMR1 [4] = molecular target: T1, CMR1; assay: Whole-cell patch-clamp of CMR1-transfected HEK293 cells; assay type: cell-based; set-up: open reading frame of 3312 bp that is predicted to encode a protein of 1104 amino acids; expressed in transfected cells
# Protocol: Trigeminal neurons responding to […] menthol with an increase in intracellular Ca2+ were selected for patch-clamp recordings. HEK293 cells were cultured in DMEM with 10% fetal bovine serum and co-transfected (Lipofectamine 2000, Invitrogen) with 1 μg CMR1 plasmid and 0.1 μg enhanced green fluorescence reporter plasmid to identify transfected cells. Cells were plated onto PLO-coated coverslips the next day and examined two days after transfection. Gigaseals were formed with pipettes (Garner Glass type 7052, ID 1.1, OD 1.5) having a resistance of 3-5 MΩ in standard pipette solution. Whole-cell voltage clamp was performed at a holding potential of −60 mV with a 200 ms voltage ramp from −120 mV to +80 mV at 3.6 Hz. Data were acquired using Pulse-Pulsefit (HEKA GmbH) software. Recordings were filtered at 5 kHz and sampled at 20 kHz. Pipette solution for neuronal experiments contained (in mM) 140 CsCl, 1 EGTA, 0.6 MgCl2, 10 HEPES, pH 7.4 (adjusted with CsOH). Standard Ca^2+-free bath solution for whole-cell recordings contained (in mM) 140 NaCl, 4 KCl, 2 MgCl2, 100 nM TTX (Sigma), 10 TRIS, pH 7.4 (adjusted with HCl) with or without 100 nM dendrotoxin I (Sigma). For ion replacement experiments, pipette solution contained (in mM) 140 KCl, 5 CsCl, 1 EGTA, 0.6 MgCl2, 1 4-aminopyridine, 10 HEPES, pH 7.4 (adjusted with KOH). Bath solution contained (in mM) 140 NaCl, 4 KCl, 2 MgCl2, 100 nM TTX, 100 nM dendrotoxin I, 100 nM apamine (Sigma), 100 nM carybdotoxin (Sigma), 1 μω-conotoxin MVIIC, 1 μM GVIA (Latoxan), 10 TRIS, pH 7.4 (adjusted with HCl). For monovalent cation permeability experiments perfusate contained (in mM) 140 NaCl (or 140 KCl or 140 NMDG), 100 nM TTX, 1 μM nitrendipine (Sigma), 10 HEPES, 10 glucose, pH 7.4 (adjusted with NaOH, KOH or HCl, respectively). For divalent cation permeability experiments perfusate contained (in mM) 125 NMDG, 10 CaCl2, 100 nM TTX, 1 μM nitrendipine, 10 HEPES, 10 glucose, pH 7.4 (adjusted with HCl). […] Bath solution for on-cell single channel experiments contained (in mM): 150 NaCl, 1 MgCl2, 10 TRIS. Pipette solution for on-cell single channel experiments contained (in mM): 150 NaCl, 1 MgCl2, 0.1 EGTA, 10 TRIS and 5 or 25 μM menthol. Recordings were performed at 22° C. unless noted otherwise. Temperature ramps were generated by cooling or heating the perfusate in a jacketed coil (Harvard Inst.) connected to a thermostat. Temperature in the proximity of the patched cell was measured using a miniature thermocouple (type MT-29/2, Physitemp) and sampled using an ITC-18 A/D board (Instrutech) and Pulse software. Permeability ratios for monovalent cations to Na (PX/PNa) were calculated according to: PX/PNa=exp(ΔErev(Na-X)F/RT), where ΔErev(Na-X) equals the reversal potential change, F the Faraday's constant, R the universal gas constant and T the absolute temperature. For measurements of Ca^2+ permeability PCa/PNa was calculated according to Lewis, C. A. J. Physiol. 286:417-45, 1979, (equation A6).
# [5] = normalized to 500 μM menthol, read-out: EC50 of evoked membrane currents
# T1 sequence (Q8R455 whole entry N449H): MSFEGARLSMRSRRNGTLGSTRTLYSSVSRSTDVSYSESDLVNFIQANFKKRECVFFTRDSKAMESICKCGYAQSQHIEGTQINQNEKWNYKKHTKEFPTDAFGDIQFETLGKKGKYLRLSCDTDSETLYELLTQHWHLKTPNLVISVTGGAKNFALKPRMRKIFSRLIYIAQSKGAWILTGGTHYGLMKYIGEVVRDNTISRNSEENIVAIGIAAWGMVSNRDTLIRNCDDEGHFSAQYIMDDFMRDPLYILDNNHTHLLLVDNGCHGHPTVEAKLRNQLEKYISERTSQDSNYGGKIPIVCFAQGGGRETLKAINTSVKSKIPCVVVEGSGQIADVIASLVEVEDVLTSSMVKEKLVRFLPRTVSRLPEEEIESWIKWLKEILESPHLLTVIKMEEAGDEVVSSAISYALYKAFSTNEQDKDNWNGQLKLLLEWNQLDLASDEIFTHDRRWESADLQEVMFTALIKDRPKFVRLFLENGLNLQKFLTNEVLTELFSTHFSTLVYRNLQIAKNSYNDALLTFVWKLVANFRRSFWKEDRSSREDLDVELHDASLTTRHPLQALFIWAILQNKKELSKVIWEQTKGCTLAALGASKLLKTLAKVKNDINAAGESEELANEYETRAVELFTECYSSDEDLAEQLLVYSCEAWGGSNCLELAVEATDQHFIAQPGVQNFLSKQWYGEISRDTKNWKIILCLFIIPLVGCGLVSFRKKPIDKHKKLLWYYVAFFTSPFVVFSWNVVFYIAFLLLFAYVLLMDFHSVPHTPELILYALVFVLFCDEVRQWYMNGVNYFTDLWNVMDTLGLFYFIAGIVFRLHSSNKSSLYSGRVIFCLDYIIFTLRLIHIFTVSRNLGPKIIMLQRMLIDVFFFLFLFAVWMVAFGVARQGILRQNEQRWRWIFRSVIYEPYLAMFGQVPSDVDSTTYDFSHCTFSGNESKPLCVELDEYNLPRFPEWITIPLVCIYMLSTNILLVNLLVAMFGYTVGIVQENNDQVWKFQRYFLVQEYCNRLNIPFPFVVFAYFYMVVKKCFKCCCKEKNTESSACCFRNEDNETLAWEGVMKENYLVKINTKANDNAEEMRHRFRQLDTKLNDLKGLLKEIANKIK
structure (smiles),measurement,setting,value
CC12CCC(CC1)C(C)(C)O2 [Eucalyptol],EC50,CMR1 [1]; read-out: potency (EC50) of evoked membrane currents,3400 ± 400 µM
CC12CCC(CC1=O)C2(C)C (stereo not shown) [camphor],electrophysiological response of receptor-expressing oocytes,CMR1 [1],little or no effect
COc1cc(CNC(=O)CCCC/C=C/C(C)C)ccc1O [capsaicin],fraction of menthol/cold-sensitive neurons also activated,trigeminal neurons [2],54.5±6.1%
same,electrophysiological response of receptor-expressing oocytes,CMR1 [1],did not elicit responses
OC1CCCCC1 [cyclohexanol],membrane currents elicited in trigeminal neurons,trigeminal neurons [3],no effect
O=C1NC(c2cccc([N+](=O)[O-])c2)=CCN1c1ccccc1O [icilin],desensitization of evoked currents relative to peak currents,"CMR1 [4]; 20 s after application, n=3",78.8±17%
same,activity in the absence of extracellular calcium,CMR1 [4]; no extracellular calcium,essentially inactive
same,efficacy compared to menthol,CMR1 [1],~2.5 fold
same,electrophysiological response of receptor-expressing oocytes,CMR1 [1],Robust responses
same,potency relative to menthol,CMR1 [1]; ratio of EC50 values,~200 fold
same,EC50,CMR1 [1]; [5],0.36 ± 0.03 µM
CC1CCC(C(C)C)C(O)C1 (stereo not shown) [menthol],thermal threshold of cold-evoked currents in the presence of the compound,"trigeminal neurons [3]; 10 μM menthol, threshold without menthol 27.1±0.5° C., n=4",29.6±0.3 °C
same,EC50,"trigeminal neurons [3]; Rattus norvegicus, Neuron, room temperature, Vhold=-60 mV, currents normalized to 1 mM menthol, read-out: half-maximal effective concentration (EC50) of evoked inward currents",80 ± 2.4 µM
same,Hill coefficient (η),trigeminal neurons [3]; fit of concentration-response data to the Hill equation,2.2
same,desensitization: decrease in peak current between first and second application,"CMR1 [4]; 2.5 mM extracellular Ca2+, n=3",53.9±1.7%
same,desensitization: decrease in peak current between first and second application,"CMR1 [4]; nominally calcium-free bath solution, n=3",9.1±7%
same,effect on cold-evoked currents,CMR1 [4]; sub-activating dose 10 μM menthol,markedly potentiated
same,electrophysiological response of receptor-expressing oocytes,CMR1 [1],Robust responses
same,EC50,CMR1 [1]; [5],66.7 ± 3.3 µM
same,saturation temperature of cold-activated currents in the presence of the compound,"CMR1 [1]; sub-activating menthol (20 mM printed), without menthol 8.2±0.3° C., n=7",15.6±0.4 °C
same,threshold temperature of cold-activated currents in the presence of the compound,"CMR1 [1]; sub-activating menthol (20 mM printed), without menthol 25.8±0.4° C., n=7",29.7±0.3 °C
CC(C)[C@@H]1CC[C@@H](C)CC1=O [menthone],membrane currents elicited in trigeminal neurons,trigeminal neurons [3],very small currents
